pIC50: −log10 of the molar value.
What was measured:
MMP1 expression by SFs = test: MMP assay proof of principle: MMP1 produced by complex trigger activated SFs; format: cell-based; conditions: 48 hrs, read-out: IC50, reduction of MMP1 expression by SFs
Method: A 384-well format ELISA for measurement of MMP1 is developed. Various primary antibodies are tested, as well as various ELISA protocols. The following protocol is developed and validated to measure MMP1 levels in SF supernatant in 384 well plates: white Lumitrac 600 384 well plates (Greiner) are coated with 2 μg/mL anti-MMP1 antibody MAB1346 (Chemicon). The antibody is diluted in buffer 40 (1.21 g Tris base (Sigma), 0.58 g NaCl (Calbiochem) and 5 mL 10% NaN3 (Sigma) in 1 L milliQ water and adjusted to pH 8.5). After overnight incubation at 4° C., plates are washed with PBS (80 g NaCl, 2g KCl (Sigma), 11.5 g Na2HPO4.7H2O and 2 g KH2PO4 in 10 L milliQ; pH 7.4) and blocked with 100 μL/well Casein buffer (2% Casein (VWR International) in PBS). Next day, casein buffer is removed from ELISA plates and replaced by 50 μL/well EC buffer (4 g casein, 2.13 g Na2HPO4 (Sigma), 2 g bovine albumin (Sigma), 0.69 g NaH2PO4.H2O (Sigma), 0.5 g CHAPS (Roche), 23.3 g NaCl, 4 mL 0.5 M EDTA pH 8 (Invitrogen), 5 mL 10% NaN3 in 1 L milliQ and adjusted to pH 7.0). 0.25 mM DTT (Sigma) is added to the thawed samples plates. After removal of the EC buffer, 20 μL of sample is transferred to the ELISA plates. […] Readout is performed on the Luminoscan Ascent Luminometer (Labsystems) with an integration time of 200 msec or with an Envision reader (Perkin Elmer). […]

[1] = after 24 months treatment; cited from earlier work

Structure (SMILES) | pIC50 (MMP1 expression by SFs) | patients achieving an ACR50 score [1]
C[C@@H]1C[C@H]2[C@@H]3CCC4=CC(=O)C=C[C@]4(C)[C@@]3(F)[C@@H](O)C[C@]2(C)[C@@]1(O)C(=O)CO [dexamethasone] | ~9.00 | –
CN(Cc1cnc2nc(N)nc(N)c2n1)c1ccc(C(=O)N[C@@H](CCC(=O)O)C(=O)O)cc1 [methotrexate] | – | 30%
